Several values for one entry are separate records, joined by “and”; a condition that tells them apart may be missing. Identical values can stand only once. Activity calls are given as the source filed them. No rule for the calls is given here.
Test system: rodent lifetime carcinogenesis bioassay, tumor incidence TD50
Assay: chronic cancer bioassays in animals – CPDB, compiled studies (AID 1745844)

SMILES: O=NO
- TD50 (hamster, strain Syrian Golden, females, in feed, site: any site (literature study), lesion: one or several types, types not named, dosed 97 weeks, study length 97 weeks): 477 mg/kg/day
- TD50 (mouse, strain B6C3F1, females, in drinking water, site: any site (literature study), lesion: several types, types named in the paper, dosed 104 weeks, study length 104 weeks): 459 mg/kg/day
- TD50 (mouse, strain B6C3F1, females, in drinking water, site: forestomach, lesion: squamous-cell carcinoma + squamous-cell papilloma, dosed 104 weeks, study length 104 weeks): 1610 mg/kg/day
- TD50 (mouse, strain B6C3F1, females, in drinking water, site: lung, lesion: alveolar/bronchiolar adenoma + alveolar/bronchiolar carcinoma, dosed 104 weeks, study length 104 weeks): 843 mg/kg/day
- TD50 (mouse, strain B6C3F1, males, in drinking water, site: any site (literature study), lesion: several types, types named in the paper, dosed 104 weeks, study length 104 weeks): 9190 mg/kg/day (inactive)
- TD50 (mouse, strain B6C3F1, males, in drinking water, site: lung, lesion: alveolar/bronchiolar adenoma + alveolar/bronchiolar carcinoma, dosed 104 weeks, study length 104 weeks): 990 mg/kg/day
- carcinogen call (mouse, strain C57BL/6, females, in drinking water, site: liver, lesion: several types, types named in the paper, dosed 117 weeks, study length 126 weeks): negative (inactive)
- TD50 (mouse, strain C57BL/6, females, in drinking water, site: lung, lesion: one or several types, types not named, dosed 117 weeks, study length 126 weeks): 5200 mg/kg/day (inactive)
- carcinogen call (mouse, strain C57BL/6, females, in feed, site: any site (literature study), lesion: several types, types named in the paper, dosed 52 weeks, study length 69 weeks): negative (inactive)
- carcinogen call (mouse, strain C57BL/6, females, in feed, site: liver, lesion: hepatocellular carcinoma, dosed 52 weeks, study length 69 weeks): negative (inactive)
- carcinogen call (mouse, strain C57BL/6, females, in feed, site: lung, lesion: adenoma, dosed 52 weeks, study length 69 weeks): negative (inactive)
- TD50 (mouse, strain C57BL/6, males, in feed, site: any site (literature study), lesion: several types, types named in the paper, dosed 52 weeks, study length 69 weeks): 1210 mg/kg/day (inactive)
- carcinogen call (mouse, strain C57BL/6, males, in feed, site: liver, lesion: hepatocellular carcinoma, dosed 52 weeks, study length 69 weeks): negative (inactive)
- TD50 (mouse, strain C57BL/6, males, in feed, site: lung, lesion: adenoma, dosed 52 weeks, study length 69 weeks): 1610 mg/kg/day (inactive)
- carcinogen call (mouse, strain ICR/Jcl, females, in drinking water, site: any site (literature study), lesion: several types, types named in the paper, dosed 109 weeks, study length 109 weeks): negative (inactive)
- carcinogen call (mouse, strain ICR/Jcl, females, in drinking water, site: liver, lesion: one or several types, types not named, dosed 109 weeks, study length 109 weeks): negative (inactive)
- TD50 (mouse, strain ICR/Jcl, females, in drinking water, site: lung, lesion: one or several types, types not named, dosed 109 weeks, study length 109 weeks): 7230 mg/kg/day (inactive)
- carcinogen call (mouse, strain ICR/Jcl, males, in drinking water, site: any site (literature study), lesion: several types, types named in the paper, dosed 109 weeks, study length 109 weeks): negative (inactive)
- TD50 (mouse, strain ICR/Jcl, males, in drinking water, site: liver, lesion: one or several types, types not named, dosed 109 weeks, study length 109 weeks): 25000 mg/kg/day (inactive)
- TD50 (mouse, strain ICR/Jcl, males, in drinking water, site: lung, lesion: one or several types, types not named, dosed 109 weeks, study length 109 weeks): 16300 mg/kg/day (inactive)
- TD50 (mouse, strain Swiss CD-1, females, in drinking water, site: liver, lesion: hepatocellular tumor, dosed 34 weeks, study length 125 weeks): 744 mg/kg/day (inactive)
- carcinogen call (mouse, strain Swiss CD-1, females, in drinking water, site: lung, lesion: one or several types, types not named, dosed 34 weeks, study length 125 weeks): negative (inactive)
- carcinogen call (mouse, strain Swiss CD-1, males, in drinking water, site: liver, lesion: hepatocellular tumor, dosed 34 weeks, study length 115 weeks): negative (inactive)
- TD50 (mouse, strain Swiss CD-1, males, in drinking water, site: lung, lesion: one or several types, types not named, dosed 34 weeks, study length 115 weeks): 103 mg/kg/day (inactive)
- carcinogen call (mouse, strain VM, females, in drinking water, site: brain, lesion: glioma, dosed 134 weeks, study length 134 weeks): negative (inactive)
- carcinogen call (mouse, strain VM, males, in drinking water, site: brain, lesion: glioma, dosed 113 weeks, study length 113 weeks): negative (inactive)
- TD50 (rat, strain Charles River CD (Sprague-Dawley), both sexes, in feed, site: all sites, lesion: malignant lymphoma, dosed 123 weeks, study length 123 weeks): 539 mg/kg/day
- TD50 (rat, strain Charles River CD (Sprague-Dawley), both sexes, in feed, site: liver, lesion: angiosarcoma, dosed 123 weeks, study length 123 weeks): 5840 mg/kg/day
- TD50 (rat, strain Charles River CD (Sprague-Dawley), both sexes, in feed, site: spleen, lesion: lymphoma, dosed 123 weeks, study length 123 weeks): 601 mg/kg/day
- carcinogen call (rat, strain F344/DuCrj, males, in drinking water, site: forestomach, lesion: one or several types, types not named, dosed 51 weeks, study length 51 weeks): negative (inactive)
- carcinogen call (rat, strain F344/DuCrj, males, in drinking water, site: stomach, glandular, lesion: one or several types, types not named, dosed 51 weeks, study length 51 weeks): negative (inactive)
- TD50 (rat, strain Fischer 344, females, in drinking water, site: adrenal gland, lesion: medullary tumor, dosed 104 weeks, study length 128 weeks): 163 mg/kg/day
- TD50 (rat, strain Fischer 344, females, in drinking water, site: any site (literature study), lesion: several types, types named in the paper, dosed 104 weeks, study length 104 weeks): 74400 mg/kg/day (inactive)
- carcinogen call (rat, strain Fischer 344, females, in drinking water, site: any site (literature study), lesion: several types, types named in the paper, dosed 104 weeks, study length 120 weeks): negative (inactive)
- TD50 (rat, strain Fischer 344, females, in drinking water, site: liver, lesion: hepatocellular carcinoma, dosed 104 weeks, study length 128 weeks): 1550 mg/kg/day
- TD50 (rat, strain Fischer 344, females, in drinking water, site: liver, lesion: neoplastic nodule, dosed 104 weeks, study length 128 weeks): 185 mg/kg/day
- carcinogen call (rat, strain Fischer 344, females, in drinking water, site: liver, lesion: several types, types named in the paper, dosed 104 weeks, study length 120 weeks): negative (inactive)
- TD50 (rat, strain Fischer 344, females, in drinking water, site: liver, lesion: several types, types named in the paper, dosed 104 weeks, study length 128 weeks): 153 mg/kg/day
- TD50 (rat, strain Fischer 344, females, in drinking water, site: mammary tissue, wider than the gland, lesion: one or several types, types not named, dosed 104 weeks, study length 128 weeks): 115 mg/kg/day
- TD50 (rat, strain Fischer 344, females, in drinking water, site: thyroid gland, lesion: carcinoma, dosed 104 weeks, study length 128 weeks): 163 mg/kg/day
- TD50 (rat, strain Fischer 344, females, in drinking water, site: uterus, lesion: polyp, dosed 104 weeks, study length 128 weeks): 218 mg/kg/day
- carcinogen call (rat, strain Fischer 344, females, in feed, site: any site (literature study), lesion: several types, types named in the paper, dosed 52 weeks, study length 69 weeks): negative (inactive)
- TD50 (rat, strain Fischer 344, females, in feed, site: liver, lesion: carcinoma, dosed 104 weeks, study length 130 weeks): 470 mg/kg/day
- TD50 (rat, strain Fischer 344, females, in feed, site: liver, lesion: hepatocellular carcinoma, dosed 104 weeks, study length 128 weeks): 629 mg/kg/day
- TD50 (rat, strain Fischer 344, females, in feed, site: liver, lesion: hepatocellular carcinoma, dosed 104 weeks, study length 130 weeks): 516 mg/kg/day
- TD50 (rat, strain Fischer 344, females, in feed, site: liver, lesion: neoplastic nodule, dosed 104 weeks, study length 128 weeks): 164 mg/kg/day
- TD50 (rat, strain Fischer 344, females, in feed, site: liver, lesion: neoplastic nodule, dosed 104 weeks, study length 130 weeks): 199 mg/kg/day and 218 mg/kg/day
- carcinogen call (rat, strain Fischer 344, females, in feed, site: liver, lesion: one or several types, types not named, dosed 52 weeks, study length 69 weeks): negative (inactive)
- TD50 (rat, strain Fischer 344, females, in feed, site: liver, lesion: several types, types named in the paper, dosed 104 weeks, study length 128 weeks): 141 mg/kg/day
- TD50 (rat, strain Fischer 344, females, in feed, site: liver, lesion: several types, types named in the paper, dosed 104 weeks, study length 130 weeks): 124 mg/kg/day and 136 mg/kg/day
- carcinogen call (rat, strain Fischer 344, males, in drinking water, site: any site (literature study), lesion: several types, types named in the paper, dosed 104 weeks, study length 120 weeks): negative (inactive)
- TD50 (rat, strain Fischer 344, males, in drinking water, site: liver, lesion: hepatocellular adenoma + hepatoblastoma + hepatocellular carcinoma, dosed 104 weeks, study length 104 weeks): 6550 mg/kg/day
- TD50 (rat, strain Fischer 344, males, in drinking water, site: liver, lesion: hepatocellular carcinoma, dosed 104 weeks, study length 128 weeks): 1040 mg/kg/day
- TD50 (rat, strain Fischer 344, males, in drinking water, site: liver, lesion: several types, types named in the paper, dosed 104 weeks, study length 120 weeks): 1310 mg/kg/day (inactive)
- TD50 (rat, strain Fischer 344, males, in drinking water, site: liver, lesion: several types, types named in the paper, dosed 104 weeks, study length 128 weeks): 946 mg/kg/day
- TD50 (rat, strain Fischer 344, males, in drinking water, site: skin, lesion: fibroma, dosed 104 weeks, study length 104 weeks): 667 mg/kg/day (inactive)
- carcinogen call (rat, strain Fischer 344, males, in feed, site: all sites, lesion: granulocytic leukemia, dosed 115 weeks, study length 115 weeks): negative (inactive)
- carcinogen call (rat, strain Fischer 344, males, in feed, site: all sites, lesion: mononuclear-cell leukemia, dosed 115 weeks, study length 115 weeks): negative (inactive)
- carcinogen call (rat, strain Fischer 344, males, in feed, site: any site (literature study), lesion: one or several types, types not named, dosed 115 weeks, study length 115 weeks): negative (inactive)
- carcinogen call (rat, strain Fischer 344, males, in feed, site: any site (literature study), lesion: several types, types named in the paper, dosed 52 weeks, study length 69 weeks): negative (inactive)
- TD50 (rat, strain Fischer 344, males, in feed, site: liver, lesion: neoplastic nodule, dosed 104 weeks, study length 130 weeks): 467 mg/kg/day and 674 mg/kg/day
- carcinogen call (rat, strain Fischer 344, males, in feed, site: liver, lesion: one or several types, types not named, dosed 52 weeks, study length 69 weeks): negative (inactive)
- TD50 (rat, strain Fischer 344, males, in feed, site: liver, lesion: several types, types named in the paper, dosed 104 weeks, study length 130 weeks): 445 mg/kg/day and 641 mg/kg/day
- carcinogen call (rat, strain Fischer 344, males, in feed, site: several sites, sites named in the paper, lesion: lymphoma, dosed 115 weeks, study length 115 weeks): negative (inactive)
- carcinogen call (rat, strain Fischer 344, males, in feed, site: testis, lesion: interstitial-cell tumor, dosed 115 weeks, study length 115 weeks): negative (inactive)
- carcinogen call (rat, strain MRC, females, in drinking water, site: any site (literature study), lesion: one or several types, types not named, dosed 67 weeks, study length 122 weeks): negative (inactive)
- TD50 (rat, strain MRC, females, in drinking water, site: any site (literature study), lesion: several types, types named in the paper, dosed 84 weeks, study length 104 weeks): 57.3 mg/kg/day (inactive)
- carcinogen call (rat, strain MRC, females, in drinking water, site: liver, lesion: one or several types, types not named, dosed 67 weeks, study length 122 weeks): negative (inactive)
- carcinogen call (rat, strain MRC, males, in drinking water, site: any site (literature study), lesion: one or several types, types not named, dosed 67 weeks, study length 122 weeks): negative (inactive)
- TD50 (rat, strain MRC, males, in drinking water, site: any site (literature study), lesion: several types, types named in the paper, dosed 84 weeks, study length 104 weeks): 61.9 mg/kg/day (inactive)
- carcinogen call (rat, strain MRC, males, in drinking water, site: liver, lesion: one or several types, types not named, dosed 67 weeks, study length 122 weeks): negative (inactive)
- carcinogen call (rat, strain Wistar, males, in drinking water, site: liver, lesion: hepatocellular carcinoma, dosed 94 weeks, study length 94 weeks): negative (inactive)
- carcinogen call (rat, strain Wistar, males, in drinking water, site: liver, lesion: one or several types, types not named, dosed 102 weeks, study length 102 weeks): negative (inactive)
- carcinogen call (rat, strain Wistar, males, in drinking water, site: lung, lesion: one or several types, types not named, dosed 94 weeks, study length 94 weeks): negative (inactive)
- carcinogen call (rat, strain Wistar, males, in drinking water, site: nasal cavity, lesion: one or several types, types not named, dosed 94 weeks, study length 94 weeks): negative (inactive)
- TD50 (rat, strain Wistar, males, in feed, site: liver, lesion: several types, types named in the paper, dosed 92 weeks, study length 92 weeks): 155 mg/kg/day

Source: PubChem BioAssay AID1745844 (Carcinogenic Potency Database (CPDB), 2022)
